Patent US20240116877A1, “KIT KINASE INHIBITORS AND METHODS OF USE THEREOF” (Deciphera Pharmaceuticals, LLC, priority 2021, published 2024)
Like-named read-outs stand apart in the source and are kept apart here.

Key:
c-KIT kinase (uKIT) = c-KIT kinase (uKIT) (Homo sapiens (Human), UniProt P10721); experiment: Biochemical Assay for uKIT (coupled pyruvate kinase/lactate dehydrogenase assay); settings: Inhibition of biochemical activity of uKIT kinase; 1 mM ATP
Description: Biochemical Assay for uKIT
Activity of c-KIT kinase (SEQ. ID NO. 1 or SEQ. ID NO. 2) was determined spectroscopically using a coupled pyruvate kinase/lactate dehydrogenase assay that continuously monitors the ATP hydrolysis-dependent oxidation of NADH (e.g., Schindler et al. Science (2000) 289: 1938-1942). Assays were conducted in 384-well plates (100 μL final volume) using 16 nM (Decode, SEQ ID No. 1) or 4.36 nM (Signal Chem, SEQ. ID No. 2), 0.7 mg/mL PE4Y substrate, 1.5 units pyruvate kinase, 2.1 units lactate dehydrogenase, 1 mM phosphoenol pyruvate, 0.28 mM NADH and 1 mM ATP in assay buffer (100 mM Tris, pH 7.5, 15 mM MgCl2, 0.5 mM DTT, 0.1% octyl-glucoside, 0.002% (w/v) BSA, and 0.002% Triton X-100). Inhibition of KIT was measured by adding serial diluted test compound (final assay concentration of 1% DMSO). A decrease in absorption at 340 nm was monitored continuously for 6 h at 30° C. on a multi-mode microplate reader (BioTek). The reaction rate was calculated using the 2-3 h time frame. The reaction rate at each concentration of compound was converted to percent inhibition using controls (i.e., reaction with no test compound and reaction with a known inhibitor) and IC50 values were calculated using software routines in Prism (GraphPad software).

Ba/F3 KIT mutant cells = experiment: Ba/F3 mutant KIT Cell Proliferation Assays (resazurin); type: cell-based; settings: Mus musculus, BaF3
Description: Ba/F3 KIT Mutant Cell Line Transduction and Expansion
Several different KIT cDNA encoding various primary and secondary mutations were cloned into a pLV(Exp]-CMV>(cDNA):IRES:puro vector. These vectors were constructed and packaged by VectorBuilder.
Exponentially grown Ba/F3 cells (1×10^6 cells in 1 ml medium) were infected with 60 μl of viral suspension in a 6-well plate in the presence of mIL-3 (10 ng/ml) and polybrene (7.5 μg/ml) (Vector Builder) and incubated for 16 h. After 16 h, the cells were centrifuged, and viral supernatant was discarded. The cells were then re-suspended in fresh medium and allowed to recover for another day. After 72 h post infection, the cells were seeded with complete medium with mIL-3 and with 1 μg/ml puromycin added to medium for selection. After 48 h, cells without viral infection die, whereas successfully transduced cells were collected and changed to fresh medium with 5 ng/ml of IL-3. After a week or two with gradual withdrawal of mIL3 the cells that can continue to proliferate in the absence of mIL3 were exponentially expanded and were frozen down for banking.
Ba/F3 mutant KIT Cell Proliferation Assays
(§1) A serial dilution of test compound was dispensed into a 384-well black clear bottom plate (Corning, Corning, NY). Six hundred and twenty-five cells were added per well in 50 μL complete growth medium. Plates were incubated for 68 h at 37° C., 5% CO2, 95% humidity. At the end of the incubation period 10 μL of a 440 μM solution of resazurin (Sigma, St. Louis, MO) in PBS was added to each well and incubated for an additional 5 h at 37° C., 5% CO2, 95% humidity. Plates were read on a Synergy2 reader (Biotek, Winooski, VT) using an excitation of 540 nm and an emission of 600 nm. Data was analyzed using Prism software (Graphpad, San Diego, CA) to calculate IC50 values.

GIST 430 cells = experiment: GIST 430 Cell Proliferation Assay (resazurin); type: cell-based; settings: Homo sapiens; GIST430 cell proliferation
Description: GIST 430 Cell Proliferation Assay
as §1, with “a 96-well” for “a 384-well”, “NY). Five thousand” for “NY). Six hundred and twenty-five”, “in 200” for “in 50”, “for 115” for “for 68”, “at 37 degrees Celsius,” for “at 37° C.,”, “period 40” for “period 10”

[1] = Ba/F3 KIT AYdup-D816G mutant cell proliferation, read-out: AYdup-D816G IC50
[2] = Ba/F3 KIT AYdup-V654A mutant cell proliferation, read-out: AYdup-V654A IC50
[3] = Ba/F3 KIT exon11del-V654A mutant cell proliferation, read-out: exon11del-V654A IC50
[4] = Ba/F3 KIT exon11del-Y823D mutant cell proliferation, read-out: exon11del-Y823D IC50
[5] = Ba/F3 KIT AYdup mutant cell proliferation, read-out: AYdup IC50

Sequence of c-KIT kinase (uKIT) (P10721 other isoform, or with tags, fused parts or gaps): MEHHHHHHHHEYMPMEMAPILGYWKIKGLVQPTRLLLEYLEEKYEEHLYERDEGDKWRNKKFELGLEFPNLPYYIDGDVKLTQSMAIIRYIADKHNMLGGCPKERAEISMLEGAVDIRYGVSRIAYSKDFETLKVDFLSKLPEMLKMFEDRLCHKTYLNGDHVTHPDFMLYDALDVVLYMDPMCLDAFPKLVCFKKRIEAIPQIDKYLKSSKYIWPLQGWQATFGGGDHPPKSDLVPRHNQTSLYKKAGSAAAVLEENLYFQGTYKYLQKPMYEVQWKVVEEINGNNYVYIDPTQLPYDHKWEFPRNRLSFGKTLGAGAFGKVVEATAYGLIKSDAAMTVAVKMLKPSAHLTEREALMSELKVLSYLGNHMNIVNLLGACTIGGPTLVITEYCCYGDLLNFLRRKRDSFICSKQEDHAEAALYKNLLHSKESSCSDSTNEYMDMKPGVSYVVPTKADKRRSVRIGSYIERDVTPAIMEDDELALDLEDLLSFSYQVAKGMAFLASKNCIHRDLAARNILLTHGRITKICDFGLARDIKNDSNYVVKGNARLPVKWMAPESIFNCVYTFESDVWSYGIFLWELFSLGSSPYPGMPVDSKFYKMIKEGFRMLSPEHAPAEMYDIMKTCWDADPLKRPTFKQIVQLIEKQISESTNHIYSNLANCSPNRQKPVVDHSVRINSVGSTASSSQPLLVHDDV

| Structure (SMILES) | IC50 (c-KIT kinase (uKIT)) | IC50 (Ba/F3 KIT mutant cells; [1]) | IC50 (Ba/F3 KIT mutant cells; [2]) | IC50 (Ba/F3 KIT mutant cells; [3]) | IC50 (Ba/F3 KIT mutant cells; [4]) | IC50 (Ba/F3 KIT mutant cells; [5]) | IC50 (GIST 430 cells) |
| --- | --- | --- | --- | --- | --- | --- | --- |
| COCCOc1cc(F)c2c(Nc3ccc(NC(=O)NC4CCC(F)(F)CC4)cc3)ncnc2c1 [Example 33] | 10 to 100 nM | 10 to 100 nM | 10 to 100 nM | 100 to 1000 nM | 100 to 1000 nM | – | 10 to 100 nM |
| COC(C)(C)CCNC(=O)Nc1ccc(Nc2ncnc3cc(OCCN4CCOCC4)cc(F)c23)cc1 [Example 37] | 10 to 100 nM | 10 to 100 nM | 10 to 100 nM | 10 to 100 nM | 10 to 100 nM | ≤ 10 nM | ≤ 10 nM |
| COCCOc1cc(F)c2c(Nc3ccc(NC(=O)NCCOC(C)(C)C)cc3)ncnc2c1 [Example 38] | 10 to 100 nM | ≤ 10 nM | 10 to 100 nM | ≤ 10 nM | ≤ 10 nM | ≤ 10 nM | ≤ 10 nM |
| CC(C)(F)CCNC(=O)Nc1ccc(Nc2ncnc3cc(OCCN4CCOCC4)cc(F)c23)cc1 [Example 39] | ≤ 10 nM | 10 to 100 nM | 10 to 100 nM | 10 to 100 nM | 10 to 100 nM | ≤ 10 nM | ≤ 10 nM |
| COCCOc1cc(F)c2c(Nc3ccc(NC(=O)CC4CCN(C)CC4)cc3)ncnc2c1 [Example 40] | > 1000 nM | – | – | > 1000 nM | – | – | > 1000 nM |
| COCCOc1cc(F)c2c(Nc3ccc(NC(=O)CC4CCC(F)(F)CC4)cc3)ncnc2c1 [Example 41] | ≤ 10 nM | 10 to 100 nM | 10 to 100 nM | 10 to 100 nM | 10 to 100 nM | ≤ 10 nM | 10 to 100 nM |
| COCCOc1cc(F)c2c(Nc3ccc(NC(=O)NCCOC(F)(F)F)cc3)ncnc2c1 [Example 42] | ≤ 10 nM | 10 to 100 nM | 10 to 100 nM | 10 to 100 nM | 10 to 100 nM | ≤ 10 nM | 10 to 100 nM |
| COCCOc1cc(F)c2c(Nc3ccc(NC(=O)C4(C(=O)NCC(C)(C)C)CC4)cc3)ncnc2c1 [Example 44] | 10 to 100 nM | 100 to 1000 nM | 100 to 1000 nM | 100 to 1000 nM | 100 to 1000 nM | 10 to 100 nM | 100 to 1000 nM |
| COCCOc1cc(F)c2c(Nc3ccc(NC(=O)CCCC(C)(C)F)cc3)ncnc2c1 [Example 45] | ≤ 10 nM | 10 to 100 nM | 10 to 100 nM | 10 to 100 nM | 100 to 1000 nM | ≤ 10 nM | ≤ 10 nM |

Second part, led by results:

| IC50 (c-KIT kinase (uKIT)) | IC50 (Ba/F3 KIT mutant cells; [1]) | IC50 (Ba/F3 KIT mutant cells; [2]) | IC50 (Ba/F3 KIT mutant cells; [3]) | IC50 (Ba/F3 KIT mutant cells; [4]) | IC50 (Ba/F3 KIT mutant cells; [5]) | Structure (SMILES) | IC50 (GIST 430 cells) |
| --- | --- | --- | --- | --- | --- | --- | --- |
| ≤ 10 nM | ≤ 10 nM | 10 to 100 nM | 10 to 100 nM | 10 to 100 nM | – | COCCOc1cc(F)c2c(Nc3ccc(NC(=O)N[C@H]4CC[C@H](C(F)(F)F)CC4)cc3)ncnc2c1 [Example 30] | ≤ 10 nM |
| ≤ 10 nM | ≤ 10 nM | 10 to 100 nM | 10 to 100 nM | 100 to 1000 nM | 10 to 100 nM | COCCOc1cc(F)c2c(Nc3ccc(NC(=O)CCCC(C)C)cc3)ncnc2c1 [Example 31] | 10 to 100 nM |
| ≤ 10 nM | ≤ 10 nM | 10 to 100 nM | 10 to 100 nM | 10 to 100 nM | ≤ 10 nM | COCCOc1cc(F)c2c(Nc3ccc(NC(=O)NCCC4(OC)CC4)cc3)ncnc2c1 [Example 32] | 10 to 100 nM |
| ≤ 10 nM | ≤ 10 nM | 10 to 100 nM | ≤ 10 nM | 10 to 100 nM | – | COCCOc1cc(F)c2c(Nc3ccc(NC(=O)NC4CCC(C)(C)C4)cc3)ncnc2c1 (stereo not shown) [Example 34] | 10 to 100 nM |
| ≤ 10 nM | 10 to 100 nM | 10 to 100 nM | 10 to 100 nM | 10 to 100 nM | ≤ 10 nM | COCCOc1cc(F)c2c(Nc3ccc(NC(=O)NCCC4(C#N)CC4)cc3)ncnc2c1 [Example 35] | 10 to 100 nM |
| ≤ 10 nM | 10 to 100 nM | 10 to 100 nM | ≤ 10 nM | 100 to 1000 nM | – | COCCOc1cc(F)c2c(Nc3ccc(NC(=O)N[C@H]4CC[C@@H](C(F)(F)F)CC4)cc3)ncnc2c1 [Example 36] | 10 to 100 nM |
